Target: Thromboxane-A synthase (Rattus norvegicus)
Assay: Tested for inhibition of thromboxane Synthetase from spontaneously hypertensive rats

CC(Cn1ccnc1)Cn1c(=O)[nH]c2cc(Cl)ccc2c1=O (stereo unspecified)
IC50: 10 nM

— BindingDB's records for doi:10.1021/jm00395a016 (Medical Research Division of American Cyanamid, 1988)
